# Assay results reported in US12252484B2, “Pyrazolopyridine compounds for the treatment of autoimmune disease” (Hoffmann-La Roche Inc., priority 2018, dated 2025).
# Molecular target: T1, human TLR7 (Homo sapiens, UniProt Q9NYK1)
# T1 sequence (Q9NYK1 27-1049): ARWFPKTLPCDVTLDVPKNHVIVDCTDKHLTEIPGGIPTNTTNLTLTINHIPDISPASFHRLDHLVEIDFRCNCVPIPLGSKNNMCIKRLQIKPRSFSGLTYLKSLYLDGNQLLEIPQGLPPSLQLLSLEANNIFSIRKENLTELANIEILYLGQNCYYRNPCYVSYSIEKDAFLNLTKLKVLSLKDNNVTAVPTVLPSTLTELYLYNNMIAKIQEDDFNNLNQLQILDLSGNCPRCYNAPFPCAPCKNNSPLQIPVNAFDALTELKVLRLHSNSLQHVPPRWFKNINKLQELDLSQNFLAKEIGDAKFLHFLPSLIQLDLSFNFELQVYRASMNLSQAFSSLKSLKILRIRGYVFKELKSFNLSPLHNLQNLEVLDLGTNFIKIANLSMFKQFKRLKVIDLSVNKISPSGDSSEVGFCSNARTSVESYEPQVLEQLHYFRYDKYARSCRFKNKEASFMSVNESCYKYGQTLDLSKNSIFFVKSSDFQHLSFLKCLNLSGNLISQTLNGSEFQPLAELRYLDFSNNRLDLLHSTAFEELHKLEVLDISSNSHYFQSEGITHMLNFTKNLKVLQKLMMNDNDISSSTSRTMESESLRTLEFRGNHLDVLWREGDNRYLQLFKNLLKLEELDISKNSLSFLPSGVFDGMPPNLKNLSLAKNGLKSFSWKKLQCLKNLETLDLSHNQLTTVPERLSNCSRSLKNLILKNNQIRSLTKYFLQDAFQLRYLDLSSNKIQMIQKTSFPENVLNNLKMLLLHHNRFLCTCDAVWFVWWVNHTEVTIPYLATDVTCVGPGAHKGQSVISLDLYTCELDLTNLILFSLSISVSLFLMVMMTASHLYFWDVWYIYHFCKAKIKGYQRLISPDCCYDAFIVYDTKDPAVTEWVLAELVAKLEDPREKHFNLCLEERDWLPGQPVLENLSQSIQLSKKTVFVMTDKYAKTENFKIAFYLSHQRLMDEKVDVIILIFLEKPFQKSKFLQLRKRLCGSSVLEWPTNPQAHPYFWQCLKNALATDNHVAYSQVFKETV
# Experiment: HEK293-Blue-hTLR-7 cells assay (SEAP reporter, R848 stimulation)
# Type: cell-based
# Settings: HEK293-Blue-hTLR-7 cells, R848 ligand, 20 hrs incubation; read-out: TLR7 IC50
# Experimental: The following tests were carried out in order to determine the activity of the compounds of formula (I) in HEK293-Blue-hTLR-7/8/9 cells assay.
# HEK293-Blue-hTLR-7 Cells Assay:
# A stable HEK293-Blue-hTLR-7 cell line was purchased from InvivoGen (Cat. #: hkb-htlr7, San Diego, California, USA). These cells were originally designed for studying the stimulation of human TLR7 by monitoring the activation of NF-κB. A SEAP (secreted embryonic alkaline phosphatase) reporter gene was placed under the control of the IFN-β minimal promoter fused to five NF-κB and AP-1-binding sites. The SEAP was induced by activating NF-κB and AP-1 via stimulating HEK-Blue hTLR7 cells with TLR7 ligands. Therefore the reporter expression was declined by TLR7 antagonist under the stimulation of a ligand, such as R848 (Resiquimod), for incubation of 20 hrs. The cell culture supernatant SEAP reporter activity was determined using QUANTI-Blue™ kit (Cat. #: rep-qb1, Invivogen, San Diego, Ca, USA) at a wavelength of 640 nm, a detection medium that turns purple or blue in the presence of alkaline phosphatase.
# HEK293-Blue-hTLR7 cells were incubated at a density of 250,000˜450,000 cells/mL in a volume of 170 μL in a 96-well plate in Dulbecco's Modified Eagle's medium (DMEM) containing 4.5 g/L glucose, 50 U/mL penicillin, […], […], 2 mM L-glutamine, 10% (v/v) heat-inactivated fetal bovine serum with addition of 20 μL test compound in a serial dilution in the presence of final DMSO at 1% and 10 μL of 20 uM R848 in above DMEM, perform incubation under 37° C. in a CO2 incubator for 20 hrs. Then 20 μL of the supernatant from each well was incubated with 180 μL Quanti-blue substrate solution at 37° C. for 2 hrs and the absorbance was read at 620˜655 nm using a spectrophotometer. The signalling pathway that TLR7 activation leads to downstream NF-κB activation has been widely accepted, and therefore similar reporter assay was modified for evaluating TLR7 antagonist.
row,SMILES,IC50 [nM]
1,"C[C@@H]1CN(c2ccc(C#N)n3ncc(F)c23)C[C@H](C(=O)NC2CCN(C)CC2)O1 [Example 47, (2R,6R)-4-(7-cyano-3-fluoro-pyrazolo[1,5-a]pyridin-4-yl)-6-methyl-N-(1-methyl-4-piperidyl)morpholine-2-carboxamide]",8
2,"C[C@@H]1CN(c2ccc(C#N)n3nccc23)C[C@H](C(=O)NCC2CNCC2(F)F)O1 (stereo partly drawn) [Example 18, (2R,6R)-4-(7-cyanopyrazolo[1,5-a]pyridin-4-yl)-N-[(4,4-difluoropyrrolidin-3-yl)methyl]-6-methyl-morpholine-2-carboxamide]",55
3,"C[C@@H]1CN(c2ccc(C#N)n3nccc23)C[C@H](C(=O)NC2CCNCC2)O1 [Example 24, (2R,6R)-4-(7-cyanopyrazolo[1,5-a]pyridin-4-yl)-6-methyl-N-(4-piperidyl)morpholine-2-carboxamide]",43
4,"C[C@@H]1CN(c2ccc(C#N)n3nccc23)C[C@H](C(=O)N2CCC3(CCNCC3)CC2)O1 [Example 28, 4-[(2R,6R)-2-(3,9-diazaspiro[5.5]undecane-3-carbonyl)-6-methyl-morpholin-4-yl]pyrazolo[1,5a]pyridine-7-carbonitrile]",320
5,"C[C@@H]1CN(c2ccc(C#N)n3nccc23)C[C@H](C(=O)NC2CCOCC2)O1 [Example 4, (2R,6R)-4-(7-cyanopyrazolo[1,5-a]pyridin-4-yl)-6-methyl-N-tetrahydropyran-4-yl-morpholine-2-carboxamide]",410
6,"COCCNC(=O)[C@H]1CN(c2ccc(C#N)n3nccc23)C[C@@H](C)O1 [Example 9, (2R,6R)-4-(7-cyanopyrazolo[1,5-a]pyridin-4-yl)-N-(2-methoxyethyl)-6-methyl-morpholine-2-carboxamide]",650
7,"C[C@@H]1CN(c2ccc(C#N)n3nccc23)C[C@H](C(=O)NC2CCN(C)CC2)O1 [Example 1, (2R,6R)-4-(7-cyanopyrazolo[1,5-a]pyridin-4-yl)-6-methyl-N-(1-methyl-4-piperidyl)morpholine-2-carboxamide]",17
8,"C[C@@H]1CN(c2ccc(C#N)n3nccc23)C[C@H](C(=O)NC23CC(CO)(C2)C3)O1 [Example 15, (2R,6R)-4-(7-cyanopyrazolo[1,5-a]pyridin-4-yl)-N-[3-(hydroxymethyl)-1-bicyclo[1.1.1]pentanyl]-6-methyl-morpholine-2-carboxamide]",220
9,"C[C@@H]1CN(c2ccc(C#N)n3nccc23)C[C@H](C(=O)Nc2ccc(C(=O)N3CCNCC3)cc2)O1 [Example 42, (2R,6R)-4-(7-cyanopyrazolo[1,5-a]pyridin-4-yl)-6-methyl-N-[4-(piperazine-1-carbonyl)phenyl]morpholine-2-carboxamide]",12
10,"C[C@@H]1CN(c2ccc(C#N)n3nccc23)C[C@H](C(=O)NC(C)(C)CO)O1 [Example 16, (2R,6R)-4-(7-cyanopyrazolo[1,5-a]pyridin-4-yl)-N-(2-hydroxy-1,1-dimethyl-ethyl)-6-methyl-morpholine-2-carboxamide]",460
11,"C[C@H]1C[C@@H](N)CN(c2ccc(C#N)n3nccc23)C1 [Example 43, 4-[(3R,5S)-3-amino-5-methyl-1-piperidyl]pyrazolo[1,5-a]pyridine-7-carbonitrile]",34
12,"C[C@@H]1CN(c2ccc(C#N)n3nccc23)C[C@H](C(=O)NCC2CN(C)CCO2)O1 (stereo partly drawn) [Example 7, (2R,6R)-4-(7-cyanopyrazolo[1,5-a]pyridin-4-yl)-6-methyl-N-[(4-methylmorpholin-2-yl)methyl]morpholine-2-carboxamide]",67
13,"CCC(O)CNC(=O)[C@H]1CN(c2ccc(C#N)n3nccc23)C[C@@H](C)O1 (stereo partly drawn) [Example 13, (2R,6R)-4-(7-cyanopyrazolo[1,5-a]pyridin-4-yl)-N-(2-hydroxybutyl)-6-methyl-morpholine-2-carboxamide]",490
14,"C[C@@H]1CN(c2ccc(C#N)n3nccc23)C[C@H](C(=O)NC2CNC[C@H]2F)O1 (stereo partly drawn) [Example 5, Cis-(2R,6R)-4-(7-cyanopyrazolo[1,5-a]pyridin-4-yl)-6-methyl-N-(4-fluoropyrrolidin-3-yl) morpholine-2-carboxamide]",73
15,"C[C@H]1C[C@@H](NCC#N)CN(c2ccc(C#N)n3nccc23)C1 [Example 46, 4-[(3R,5S)-3-(cyanomethylamino)-5-methyl-1-piperidyl]pyrazolo[1,5-a]pyridine-7-carbonitrile]",170
16,"C[C@@H]1CN(c2ccc(C#N)n3nccc23)C[C@H](C(=O)NC2CC3CCC(C2)N3C)O1 (stereo partly drawn) [Example 33, (2R,6R)-4-(7-cyanopyrazolo[1,5-a]pyridin-4-yl)-6-methyl-N-(8-methyl-8-azabicyclo[3.2.1]octan-3-yl)morpholine-2-carboxamide]",4
17,"C[C@@H]1CN(c2ccc(C#N)n3nccc23)C[C@H](C(=O)NC2CC3CCC(C2)N3)O1 (stereo partly drawn) [Example 23, Exo-(2R,6R)-N-[8-azabicyclo[3.2.1]octan-3-yl]-4-(7-cyanopyrazolo[1,5-a]pyridin-4-yl)-6-methyl-morpholine-2-carboxamide]",27
18,"C[C@@H]1CN(c2ccc(C#N)n3nccc23)C[C@H](C(=O)N[C@H]2CC[C@@H](O)CC2)O1 [Example 20, Cis-(2R,6R)-4-(7-cyanopyrazolo[1,5-a]pyridin-4-yl)-N-(4-hydroxycyclohexyl)-6-methyl-morpholine-2-carboxamide]",350
